# Experimental data from US8269000B2, “Substituted pyrimidine and triazine compounds” (Gruenenthal GmbH, priority 2008, dated 2012).
# Biological target: T1, rat B1R (Rattus norvegicus, UniProt P97583)
# T1 construct: expressed in transfected cells; host or cells: CHO K1 cells
# T1 sequence (P97583 1-337): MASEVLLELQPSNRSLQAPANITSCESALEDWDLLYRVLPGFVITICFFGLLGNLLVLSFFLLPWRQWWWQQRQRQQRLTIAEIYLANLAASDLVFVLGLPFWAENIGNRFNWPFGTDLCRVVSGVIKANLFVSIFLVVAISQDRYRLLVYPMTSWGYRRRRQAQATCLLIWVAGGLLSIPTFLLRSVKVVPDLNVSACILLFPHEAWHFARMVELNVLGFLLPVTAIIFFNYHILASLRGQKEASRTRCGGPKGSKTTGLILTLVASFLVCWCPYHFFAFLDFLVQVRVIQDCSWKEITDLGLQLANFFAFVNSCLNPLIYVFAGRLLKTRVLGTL
# Test: FLIPR Ca2+ functional study on bradykinin receptor 1 (rB1R CHO K1 cells)
# Format: cell-based
# Settings: % inhibition rat B1R at 10 μM
# Procedure, shortened: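 Antagonism was calculated as % of maximal inhibition of the Ca2+ rise triggered by agonist at EC80 (Lys-Des-Arg9-bradykinin for hB1R, Des-Arg9-bradykinin for rB1R), added 10-20 min after test compound (10 μM or serial dilutions for IC50) to Fluo-4-loaded transfected CHO K1 cells on FLIPR. Duplicates or triplicates, ≥2 independent runs.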
row,% inh. (rat B1R) 10 μM,SMILES
1,88%,COc1cc(C)c(S(=O)(=O)N(C)C(COc2nccc(N3CCC(c4nc(-c5ccncc5)no4)CC3)n2)c2ccccc2)c(C)c1 (stereo not shown) [G_CC-134]
2,57%,"COc1cc(C)c(S(=O)(=O)N2CCCCC2COc2ccnc(N3CCN(c4ncccn4)CC3)n2)c(C)c1 (stereo not shown) [H_CC-004, 4-[[1-(4-methoxy-2,6-dimethylphenyl)sulfonyl-2-pipendinyl]methoxy]-2-[4-(2-pyrimidinyl)-1-piperazinyl]pyrimidine]"
3,94%,"COc1cc(C)c(S(=O)(=O)N2CCCCC2COc2ccnc(N3CCN(c4ccncc4)CC3)n2)c(C)c1 (stereo not shown) [H_CC-005, 4-[[1-(4-methoxy-2,6-dimethylphenyl)sulfonyl-2-pipendinyl]methoxy]-2-[4-(4-pyridyl)-1-piperazinyl]pyrimidine]"
4,61%,"COc1cc(C)c(S(=O)(=O)N2CCCCC2COc2ccnc(N3CCN(CC4CCN(C)CC4)CC3)n2)c(C)c1 (stereo not shown) [H_CC-006, 4-[[1-(4-methoxy-2,6-dimethylphenyl)sulfonyl-2-pipendinyl]methoxy]-2-[4-[(1-methyl-4-pipendinyl)methyl]-1-piperazinyl]pyrimidine]"
5,93%,"COc1cc(C)c(S(=O)(=O)N2CCC[C@H]2COc2ccnc(N3CCN(CC4CCN(C)CC4)CC3)n2)c(C)c1 [H_CC-012, 4-[[(2S)-1-(4-methoxy-2,6-dimethylphenyl)sulfonyl-2-pyrrolidinyl]methoxy]-2-[4-[(1-methyl-4-pipendinyl)methyl]-1-piperazinyl]pyrimidine]"

# Same assay, conditions: CHO-K1, % inhibition rat B1R at 10 μM, read-out: % inh. (rat B1R) 10 μM
row,inhibition at 10 µM,SMILES
1,78%,"COc1cc(C)c(S(=O)(=O)N(C)C(COc2nccc(N3CCCC3Cc3ccccn3)n2)c2ccccc2)c(C)c1 (stereo not shown) [G_CC-133, 4-methoxy-N,2,6-trimethyl-N-[1-phenyl-2-[4-[2-(pyridin-2-yl-methyl)-pyrrolidin-1-yl]-pyrimidin-2-yl]oxy-ethyl]benzenesulfonic acid amide]"
2,53%,"COc1cc(C)c(S(=O)(=O)N(C)C(COc2nccc(N3CCC(c4cccc(F)c4)(N4CCN(C)CC4)CC3)n2)c2ccccc2)c(C)c1 (stereo not shown) [G_CC-135, N-[2-[4-[4-(3-fluorophenyl)-4-(4-methyl-piperazin-1-yl)-piperidin-1-yl]-pyrimidin-2-yl]oxy-1-phenyl-ethyl]-4-methoxy-N,2,6-trimethyl-benzenesulfonic acid amide]"
3,81%,"COc1cc(C)c(S(=O)(=O)N(C)C(COc2nccc(N3CCC(Oc4ccccn4)CC3)n2)c2ccccc2)c(C)c1 (stereo not shown) [G_CC-136, 4-methoxy-N,2,6-trimethyl-N-[1-phenyl-2-[4-(4-pyridin-2-yloxy-piperidin-1-yl)-pyrimidin-2-yl]oxy-ethyl]benzenesulfonic acid amide]"
4,77%,"COc1cc(C)c(S(=O)(=O)N(C)C(COc2nccc(N3CCC(C)(N4CCOCC4)CC3)n2)c2ccccc2)c(C)c1 (stereo not shown) [G_CC-137, 4-methoxy-N,2,6-trimethyl-N-[2-[4-(4-methyl-4-morpholin-4-yl-piperidin-1-yl)-pyrimidin-2-yl]oxy-1-phenyl-ethyl]benzenesulfonic acid amide]"
5,65%,"COc1cc(C)c(S(=O)(=O)N2CCCCC2COc2ccnc(N3CCN(C4CCN(C)CC4)CC3)n2)c(C)c1 (stereo not shown) [H_CC-001, 4-[[1-(4-methoxy-2,6-dimethylphenyl)sulfonyl-2-piperidinyl]methoxy]-2-[4-(1-methyl-4-piperidinyl)-1-piperazinyl]pyrimidine]"
6,77%,"COc1cc(C)c(S(=O)(=O)N2CCCCC2COc2ccnc(N3CCC(CCN4CCCC4)CC3)n2)c(C)c1 (stereo not shown) [H_CC-002, 4-[[1-(4-methoxy-2,6-dimethylphenyl)sulfonyl-2-piperidinyl]methoxy]-2-[4-(2-1-pyrrolidinylethyl)-1-piperidinyl]pyrimidine]"
7,58%,"COc1cc(C)c(S(=O)(=O)N2CCCCC2COc2ccnc(N3CCN(C)CC3)n2)c(C)c1 (stereo not shown) [H_CC-003, 4-[[1-(4-methoxy-2,6-dimethylphenyl)sulfonyl-2-piperidinyl]methoxy]-2-(4-methyl-1-piperazinyl)pyrimidine]"
8,71%,"COc1cc(C)c(S(=O)(=O)N2CCCCC2COc2ccnc(N3CCC(O)(c4cccnc4)CC3)n2)c(C)c1 (stereo not shown) [H_CC-007, 1-[4-[[1-(4-methoxy-2,6-dimethylphenyl)sulfonyl-2-piperidinyl]methoxy]-2-pyrimidinyl]-4-(3-pyridyl)-4-piperidinol]"
9,95%,"COc1cc(C)c(S(=O)(=O)N2CCC[C@H]2COc2ccnc(N3CCN(C)CC3)n2)c(C)c1 [H_CC-008, 4-[[(2S)-1-(4-methoxy-2,6-dimethylphenyl)sulfonyl-2-pyrrolidinyl]methoxy]-2-(4-methyl-1-piperazinyl)pyrimidine]"
10,85%,"COc1cc(C)c(S(=O)(=O)N2CCC[C@H]2COc2ccnc(N3CCC(CCN4CCCC4)CC3)n2)c(C)c1 [H_CC-009, 4-[[(2S)-1-(4-methoxy-2,6-dimethylphenyl)sulfonyl-2-pyrrolidinyl]methoxy]-2-[4-(2-1-pyrrolidinylethyl)-1-piperidinyl]pyrimidine]"
11,100%,"COc1cc(C)c(S(=O)(=O)N2CCC[C@H]2COc2ccnc(N3CCC(N4CCN(C)CC4)CC3)n2)c(C)c1 [H_CC-010, 4-[[(2S)-1-(4-methoxy-2,6-dimethylphenyl)sulfonyl-2-pyrrolidinyl]methoxy]-2-[4-(4-methyl-1-piperazinyl)-1-piperidinyl]pyrimidine]"
12,56%,"COc1cc(C)c(S(=O)(=O)N2CCC[C@H]2COc2ccnc(N3CCN(c4ncccn4)CC3)n2)c(C)c1 [H_CC-011, 4-[[(2S)-1-(4-methoxy-2,6-dimethylphenyl)sulfonyl-2-pyrrolidinyl]methoxy]-2-[4-(2-pyrimidinyl)-1-piperazinyl]pyrimidine]"
13,79%,"COc1cc(C)c(S(=O)(=O)N2CCC[C@H]2COc2ccnc(N3CCC(O)(c4cccnc4)CC3)n2)c(C)c1 [H_CC-013, 1-[4-[[(2S)-1-(4-methoxy-2,6-dimethylphenyl)sulfonyl-2-pyrrolidinyl]methoxy]-2-pyrimidinyl]-4-(3-pyridyl)-4-piperidinol]"
14,53%,"COc1cc(C)c(S(=O)(=O)N2CC(Oc3ccnc(N4CCC(CCN5CCCC5)CC4)n3)C2)c(C)c1 [H_CC-014, 4-[[1-(4-methoxy-2,6-dimethylphenyl)sulfonyl-3-azetidinyl]oxy]-2-[4-(2-1-pyrrolidinylethyl)-1-piperidinyl]pyrimidine]"
15,56%,"COc1cc(C)c(S(=O)(=O)N2CC(Oc3ccnc(N4CCC(N5CCN(C)CC5)CC4)n3)C2)c(C)c1 [H_CC-015, 4-[[1-(4-methoxy-2,6-dimethylphenyl)sulfonyl-3-azetidinyl]oxy]-2-[4-(4-methyl-1-piperazinyl)-1-piperidinyl]pyrimidine]"
16,67%,"COc1cc(C)c(S(=O)(=O)N2c3ccccc3C[C@H]2COc2ccnc(N3CCN(C)CC3)n2)c(C)c1 [H_CC-016, (2S)-1-(4-methoxy-2,6-dimethylphenyl)sulfonyl-2-[[2-(4-methyl-1-piperazinyl)-4-pyrimidinyl]oxymethyl]indoline]"

row,SMILES,inhibition at 10 µM
1,"COc1cc(C)c(S(=O)(=O)N(C)C(COc2nccc(N(C)CCN3CCC(O)(c4cccnc4)CC3)n2)c2ccccc2)c(C)c1 (stereo not shown) [G_CC-138, N-[2-[4-[2-(4-hydroxy-4-pyridin-3-yl-piperidin-1-yl)-ethyl-methyl-amino]-pyrimidin-2-yl]oxy-1-phenyl-ethyl]-4-methoxy-N,2,6-trimethyl-benzenesulfonic acid amide]",56%
